Holding throughout (format): cell-based
Assay [1] deals with alpha-smooth muscle actin (α-SMA). In words: Inhibition of TGF-β induced expression of alpha-smooth muscle actin in CFSC cells (western blot). Particulars: compound at 10 μM, TGF-β (10 ng/mL), 24 hours. The method, boiled down: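 Rat CCl4-treated hepatic stellate (CFSC) cells in serum-free DMEM were given compound at 10 μM plus TGF-β 10 ng/mL for 24 h at 37 °C. α-SMA measured by western blot with β-actin, bands quantified densitometrically. Percent inhibition is the decrease in band intensity versus TGF-β alone.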

In assay [2] the test system is A431 (epidermoid carcinoma). In words: Antiproliferative activity, CCK-8 cell viability. As to conditions: Homo sapiens, A-431, 72 h, read-out: Inhibition of Cancerous Cells, A431; for inhibition at 3.3 µM: compound concentration of 3.3 μM; for inhibition at 10 µM: compound concentration of 10 μM; for inhibition at 30 µM: compound concentration of 30 μM. The method, boiled down:
(§1)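 Cells in DMEM with 10% FBS were treated with compound at 3.3, 10 or 30 μM for 72 h at 37°C. Viability was read by CCK-8 absorbance at 450 nm and expressed relative to DMSO-treated cells. Growth inhibition was binned as ≥50%, 30–50% or <30%.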

Assay [3] deals with A549 (lung adenocarcinoma). In words: Antiproliferative activity, CCK-8 cell viability. Particulars: Homo sapiens, 72 h, read-out: Inhibition of Cancerous Cells, A549; for inhibition at 3.3 µM: compound concentration of 3.3 μM; for inhibition at 10 µM: compound concentration of 10 μM; for inhibition at 30 µM: compound concentration of 30 μM.
Assay [4] concerns B16F10 (malignant melanoma). In words: Antiproliferative activity, CCK-8 cell viability. Particulars: Mus musculus, B16-F10, 72 h, read-out: Inhibition of Cancerous Cells, B16F10; for inhibition at 3.3 µM: compound concentration of 3.3 μM; for inhibition at 10 µM: compound concentration of 10 μM; for inhibition at 30 µM: compound concentration of 30 μM. The procedure, abridged:
as §1

A further assay deals with HeLa (cervical cancer). As to the kind of experiment: Antiproliferative activity, CCK-8 cell viability. Particulars: Homo sapiens, 72 h, read-out: Inhibition of Cancerous Cells, HELA; for inhibition at 3.3 µM: compound concentration of 3.3 μM; for inhibition at 10 µM: compound concentration of 10 μM; for inhibition at 30 µM: compound concentration of 30 μM.
Another assay deals with HepG2 (liver cancer). As to the kind of experiment: Antiproliferative activity, CCK-8 cell viability. As to conditions: Homo sapiens, 72 h, read-out: Inhibition of Cancerous Cells, HepG2; for inhibition at 3.3 µM: compound concentration of 3.3 μM; for inhibition at 10 µM: compound concentration of 10 μM; for inhibition at 30 µM: compound concentration of 30 μM. The method, boiled down: as §1

Assay [5] concerns MDA-MB-231 (breast cancer). In words: Antiproliferative activity, CCK-8 cell viability. Particulars: Homo sapiens, 72 h, read-out: Inhibition of Cancerous Cells, MDA-MB-231; for inhibition at 3.3 µM: compound concentration of 3.3 μM; for inhibition at 10 µM: compound concentration of 10 μM; for inhibition at 30 µM: compound concentration of 30 μM. The method, boiled down:
as §1

In a further assay the test system is SW480 (colon cancer). As to the kind of experiment: Antiproliferative activity, CCK-8 cell viability. Particulars: Homo sapiens, 72 h, read-out: Inhibition of Cancerous Cells, SW480; for inhibition at 3.3 µM: compound concentration of 3.3 μM; for inhibition at 10 µM: compound concentration of 10 μM; for inhibition at 30 µM: compound concentration of 30 μM. The method, boiled down:
as §1

As usually defined, the inhibition is the relative decrease from the control value, in per cent. With `CC1=C(CC(=O)O)c2cc(F)ccc2/C1=C\c1cccc(COc2ccc(C(C)(C)C)cc2)c1` [Compound A22, 2-[(1Z)-1-({3-[(4-Tert-butylphenoxy)methyl]phenyl}methylidene)-5-fluoro-2-methyl-1H-inden-3-yl]acetic acid], the inhibition at 10 µM was not below 80% in assay [1]; not below 50% in assay [2]; 30 to 50% in assay [3]; not below 50% in assay [4]; less than 30% with HeLa (cervical cancer); not below 50% in the assay with HepG2 (liver cancer). For the same molecule, the inhibition at 10 µM (in assay [5]; in the assay with SW480 (colon cancer)) was not below 50% each time. Further, the inhibition at 3.3 µM in assay [2] is not below 50%; in assay [3], less than 30%; in assay [4], not below 50%; in the assay with HeLa (cervical cancer), less than 30%; in the assay with HepG2 (liver cancer) it was 30 to 50%; in assay [5], not below 50%. Further, in the assay with SW480 (colon cancer), the inhibition at 3.3 µM was 30 to 50%. Also, the inhibition at 30 µM (in assay [2]; in assay [3]; in assay [4]; in the assay on HeLa (cervical cancer); with HepG2 (liver cancer); in assay [5]) was not below 50% in each case. In addition, the inhibition at 30 µM in the assay on SW480 (colon cancer) was not below 50%.
On to `CC1=C(CC(=O)O)c2cc(F)ccc2/C1=C/c1ccc(Oc2ccc(F)c(F)c2)cc1` [Compound E1, 2-[(1E)-5-Fluoro-2-methyl-1-({4-[3,4-difluorophenoxy]phenyl}methylidene)-1H-inden-3-yl]acetic acid], for which the inhibition at 10 µM in assay [1] is not below 80%; in assay [2] it was not below 50%; in assay [3], not below 50%; in assay [4] it was 30 to 50%; with HeLa (cervical cancer), not below 50%; in the assay with HepG2 (liver cancer), not below 50%. Moreover, the inhibition at 10 µM (in assay [5]; in the assay on SW480 (colon cancer)) was not below 50% each time. Further, the inhibition at 3.3 µM in assay [2] is 30 to 50%; in assay [3] it was 30 to 50%; in assay [4], less than 30%; with HeLa (cervical cancer), 30 to 50%; in the assay with HepG2 (liver cancer), not below 50%; in assay [5] it was not below 50%. For the same molecule, the inhibition at 3.3 µM with SW480 (colon cancer) was not below 50%. The inhibition at 30 µM (in assay [2]; in assay [3]; in assay [4]; in the assay on HeLa (cervical cancer); in the assay with HepG2 (liver cancer); in assay [5]) was not below 50% throughout. In addition, the inhibition at 30 µM in the assay with SW480 (colon cancer) is not below 50%.
With `COc1ccc2c(c1)/C(=C\c1ccc(COc3ccccc3)cc1)C(C)=C2CC(=O)O` [Compound A12, (Z)-2-(6-Methoxy-2-methyl-1-(4-(phenoxymethyl)benzylidene)-1H-inden-3-yl)acetic acid], the inhibition at 10 µM in assay [1] is not below 80%; in assay [2], less than 30%; in assay [3], not below 50%; in assay [4], not below 50%; in the assay with HeLa (cervical cancer), not below 50%; with HepG2 (liver cancer), 30 to 50%. The inhibition at 10 µM was 30 to 50% in assay [5] and not below 50% with SW480 (colon cancer). Moreover, the inhibition at 3.3 µM in assay [2] is less than 30%; in assay [3] it was 30 to 50%; in assay [4], not below 50%; in the assay with HeLa (cervical cancer), 30 to 50%; in the assay on HepG2 (liver cancer), 30 to 50%; in assay [5], less than 30%. Besides, in the assay with SW480 (colon cancer), the inhibition at 3.3 µM is not below 50%. Moreover, the inhibition at 30 µM (in assay [2]; in assay [3]; in assay [4]; with HeLa (cervical cancer); in the assay on HepG2 (liver cancer); in assay [5]) was not below 50% each time. Further, the inhibition at 30 µM in the assay with SW480 (colon cancer) is not below 50%.
As for `CC1=C(CC(=O)O)c2cc(F)cc(F)c2/C1=C\c1ccc(Oc2ccc(F)cc2)cc1` [Compound D15, 2-[(1Z)-5,7-Difluoro-2-methyl-1-({4-[4-fluorophenoxy]phenyl}methylidene)-1H-inden-3-yl]acetic acid], the inhibition at 10 µM was not below 80% in assay [1]; 30 to 50% in assay [2]; not below 50% in assay [3]; 30 to 50% in assay [4]; not below 50% in the assay on HeLa (cervical cancer); not below 50% in the assay with HepG2 (liver cancer). Moreover, the inhibition at 10 µM (in assay [5]; with SW480 (colon cancer)) was not below 50% each time. Also, the inhibition at 3.3 µM is less than 30% in assay [2]; 30 to 50% in assay [3]; less than 30% in assay [4]; less than 30% in the assay with HeLa (cervical cancer); not below 50% in the assay on HepG2 (liver cancer); not below 50% in assay [5]. Besides, the inhibition at 3.3 µM in the assay on SW480 (colon cancer) is less than 30%. Also, the inhibition at 30 µM (in assay [2]; in assay [3]; in assay [4]; in the assay on HeLa (cervical cancer); in the assay on HepG2 (liver cancer); in assay [5]) was not below 50% in each case. Also, the inhibition at 30 µM in the assay with SW480 (colon cancer) was not below 50%.
As for `CC1=C(CC(=O)O)c2cc(F)ccc2/C1=C\c1cccc(CN(C)c2ccccc2)c1` [Compound A16, 2-[(1Z)-5-Fluoro-2-methyl-1-[(3-{[methyl(phenyl)amino]methyl}phenyl)-methylidene]-1H-inden-3-yl]acetic acid], the inhibition at 10 µM in assay [1] is not below 80%; in assay [2], not below 50%; in assay [3] it was not below 50%; in assay [4], less than 30%; in the assay on HeLa (cervical cancer), not below 50%; with HepG2 (liver cancer), 30 to 50%. The inhibition at 10 µM (in assay [5]; in the assay on SW480 (colon cancer)) was not below 50% each time. The inhibition at 3.3 µM in assay [2] was less than 30%; in assay [3] it was 30 to 50%; in assay [4], less than 30%; in the assay with HeLa (cervical cancer) it was 30 to 50%; in the assay on HepG2 (liver cancer), less than 30%; in assay [5], 30 to 50%. Moreover, the inhibition at 3.3 µM with SW480 (colon cancer) is not below 50%. Further, the inhibition at 30 µM (in assay [2]; in assay [3]; in assay [4]; in the assay with HeLa (cervical cancer); in the assay with HepG2 (liver cancer); in assay [5]) was not below 50% each time. For the same molecule, in the assay with SW480 (colon cancer), the inhibition at 30 µM was not below 50%.
Turning to `CC1=C(CC(=O)O)c2cc(F)ccc2/C1=C\c1cccc(CCc2ccccc2)c1` [Compound A17, 2-[(1Z)-5-Fluoro-2-methyl-1-{[3-(2-phenylethyl)phenyl]methylidene}-1H-inden-3-yl]acetic acid], the inhibition at 10 µM was less than 30% in assay [1]; not below 50% in assay [2]; not below 50% in assay [3]; not below 50% in assay [4]; not below 50% in the assay on HeLa (cervical cancer); not below 50% with HepG2 (liver cancer). The inhibition at 10 µM (in assay [5]; in the assay with SW480 (colon cancer)) was not below 50% in each case. The inhibition at 3.3 µM is less than 30% in assay [2]; not below 50% in assay [3]; 30 to 50% in assay [4]; 30 to 50% in the assay on HeLa (cervical cancer); not below 50% in the assay on HepG2 (liver cancer); not below 50% in assay [5]. The inhibition at 3.3 µM in the assay on SW480 (colon cancer) was not below 50%. Further, the inhibition at 30 µM (in assay [2]; in assay [3]; in assay [4]; in the assay on HeLa (cervical cancer); in the assay on HepG2 (liver cancer); in assay [5]) was not below 50% in each case. The inhibition at 30 µM with SW480 (colon cancer) is not below 50%.

The values are drawn from patent publication US20240116845A1, “INDENE COMPOUNDS, PHARMACEUTICAL COMPOSITIONS THEREOF, AND THEIR THERAPEUTIC APPLICATIONS” (NucMito Pharmaceuticals Co., Ltd., priority 2021, published 2024).
